Source: US9737075B2, “Synergistic benzoxaborole-containing anti-fungicidal composition” (The Penn State Research Foundation, priority 2015, dated 2017)
Values after ≈ are worked out from the molar mass of the structure shown. Read-outs that look alike come from different tables or passages of the source.

Tests used:
Assay type in all cases: cell-based
[1] = system: Fusarium graminearum; experiment: microbe, parasite or virus in culture; conditions: Fusarium graminearum; for MIC: 72 h, read-out: Independent MIC
[2] = system: Aspergillus niger; experiment: Broth microdilution MIC of individual antifungals; conditions: for MIC: read-out: Independent MIC
[3] = system: Sclerotinia homoeocarpa; experiment: Broth microdilution MIC of individual antifungals; conditions: Sclerotinia homoeocarpa, individual antifungal, 25% PDB, about 25° C., 72 hours, range over N independent triplicate studies; for MIC: Clarireedia homoeocarpa, read-out: Independent MIC
[4] = system: Botrytis cinerea 10-1728; experiment: Broth microdilution MIC of individual antifungals; conditions: Botrytis cinerea 10-1728, individual antifungal, 25% PDB, about 25° C., 72 hours, range over N independent triplicate studies; for MIC: 101728, read-out: Independent MIC
[5] = system: Mucor sp.; experiment: Broth microdilution MIC of individual antifungals; conditions: individual antifungal, 25% PDB, about 25° C., 72 hours, range over N independent triplicate studies
[6] = system: Magnaporthe grisea; experiment: microbe, parasite or virus in culture; conditions: for MIC: Pyricularia oryzae, 72 h, read-out: Independent MIC; for Independent MIC: Magnaporthe grisea, individual antifungal, 25% PDB, about 25° C., 72 hours, range over N independent triplicate studies
[7] = system: Phytophthora pini; experiment: Broth microdilution MIC of individual antifungals; conditions: individual antifungal, 25% PDB, about 25° C., 72 hours, range over N independent triplicate studies
[8] = system: Mycosphaerella zeae-maydis; experiment: Broth microdilution MIC of individual antifungals; conditions: Didymella maydis, individual antifungal, 25% PDB, about 25° C., 72 hours, range over N independent triplicate studies
[9] = system: Aspergillus flavus; experiment: Broth microdilution MIC of individual antifungals; conditions: individual antifungal, 25% PDB, about 25° C., 72 hours, range over N independent triplicate studies, read-out: Independent MIC
[10] = system: Aspergillus fumigatus; experiment: Broth microdilution MIC of individual antifungals; conditions: individual antifungal, 25% PDB, about 25° C., 72 hours, range over N independent triplicate studies; for MIC: read-out: Independent MIC
[11] = system: Fusarium verticillioides; experiment: Broth microdilution MIC of individual antifungals; conditions: individual antifungal, 25% PDB, about 25° C., 72 hours, range over N independent triplicate studies, read-out: Independent MIC
[12] = system: Alternaria solani; experiment: Broth microdilution MIC of individual antifungals; conditions: individual antifungal, 25% PDB, about 25° C., 72 hours, range over N independent triplicate studies; for MIC: read-out: Independent MIC
[13] = system: Candida albicans; experiment: Broth microdilution MIC of individual antifungals; conditions: individual antifungal, 25% PDB, about 25° C., 72 hours, range over N independent triplicate studies, read-out: Independent MIC
[14] = system: Penicillium chrysogenum; experiment: Broth microdilution MIC of individual antifungals; conditions: read-out: Independent MIC
[15] = system: Colletotrichum orbiculare; experiment: Broth microdilution MIC of individual antifungals; conditions: for MIC: read-out: Independent MIC
[16] = system: Aureobasidium pullulans; experiment: Broth microdilution MIC of individual antifungals; conditions: 72 h, read-out: Independent MIC
[17] = system: Botrytis cinerea B17; experiment: Broth microdilution MIC of individual antifungals; conditions: read-out: Independent MIC
[18] = system: Stachybotrys chartarum; experiment: Broth microdilution MIC of individual antifungals; conditions: read-out: Independent MIC
[19] = system: Rhizopus sp.; experiment: Broth microdilution MIC of individual antifungals; conditions: Rhizopus, 72 h, read-out: Independent MIC
[20] = individual antifungal, 25% PDB, about 25° C., 72 hours, range over N independent triplicate studies
[21] = Rhizopus sp., individual antifungal, 25% PDB, about 25° C., 72 hours, range over N independent triplicate studies
[22] = Botrytis cinerea B17, individual antifungal, 25% PDB, about 25° C., 72 hours, range over N independent triplicate studies

## OB1OCc2ccccc21 [BO, 2-(hydroxymethyl)benzene boronic acid hemiester]
[1]
  MIC: 2 to 4 µg/mL (≈ 14.9 to 29.9 µM)

## O=C(Nc1ccccc1-c1ccc(Cl)cc1)c1cccnc1Cl [Boscalid, boscalid]
[2]; [20]
  MIC: 0.39 to 0.5 µg/mL
[3]
  MIC: 0.8 µg/mL
[4]
  MIC: 3.12 to 6.25 µg/mL

## CCCCc1c(C)nc(NCC)nc1OS(=O)(=O)N(C)C [Bupirimate]
[3]
  MIC: 50 to 100 µg/mL
[4]
  MIC: 100 µg/mL
[5]
  MIC: 100 µg/mL
[6]
  MIC: 50 µg/mL (≈ 158 µM)
[7]
  MIC: 50 µg/mL

## COC(=O)Nc1nc2ccccc2[nH]1 [Carbendazim, carbendazim]
[8]
  MIC: 1.56 to 2 µg/mL
[9]
  MIC: 0.78 to 3.12 µg/mL
[10]
  MIC: 1.56 to 3.12 µg/mL
[2]; 72 h
  MIC: 1 to 1.56 µg/mL
[3]
  MIC: 0.05 to 0.1 µg/mL
[1]
  MIC: 1.56 µg/mL (≈ 8.16 µM)
[11]
  MIC: 3.12 to 4 µg/mL
[6]
  MIC: 0.39 to 0.78 µg/mL (≈ 2.04 to 4.08 µM)

## Cc1cc(C2CC2)nc(Nc2ccccc2)n1 [Cyprodinil, cyprodinil]
[8]
  MIC: 1.56 µg/mL
[12]
  MIC: 100 µg/mL
[9]
  MIC: 0.75 to 1.56 µg/mL
[2]; [20]
  MIC: 3.12 µg/mL
[3]
  MIC: 0.39 µg/mL
[4]
  MIC: 50 to 100 µg/mL
[13]
  MIC: 50 µg/mL
[1]
  MIC: 200 µg/mL (≈ 888 µM)
[11]
  MIC: 100 to 200 µg/mL
[5]
  MIC: 50 µg/mL
[14]; [20]
  MIC: 0.025 to 0.048 µg/mL
[15]; [20]
  MIC: 100 to 200 µg/mL

## CCOc1ccc(NC(=O)OC(C)C)cc1OCC [Diethofencarb, diethofencarb]
[3]
  MIC: 100 to 200 µg/mL
[4]
  MIC: 1.5 to 1.56 µg/mL
[5]
  MIC: 100 to 200 µg/mL

## COc1ccc(C(=CC(=O)N2CCOCC2)c2ccc(Cl)cc2)cc1OC [Dimethomorph, dimethomorph]
[4]
  MIC: 100 to 200 µg/mL
[5]
  MIC: 200 to 400 µg/mL

## CCCCc1c(C)nc(NCC)[nH]c1=O [Ethirimol, ethirimol]
[8]
  MIC: 400 µg/mL
[3]
  MIC: 200 µg/mL
[4]
  MIC: 200 to 400 µg/mL
[7]
  MIC: 200 µg/mL

## CSC1=N[C@@](C)(c2ccccc2)C(=O)N1Nc1ccccc1 [Fenamidone, fenamidone]
[8]
  MIC: 50 to 200 µg/mL
[12]
  MIC: 100 to 200 µg/mL
[3]
  MIC: 100 to 200 µg/mL
[4]
  MIC: 100 µg/mL
[5]
  MIC: 50 to 200 µg/mL

## CC(Oc1ccc(Cl)cc1Cl)C(=O)NC(C)(C#N)C(C)C (centres unmarked) [Fenoxanil, fenoxanil]
[12]
  Independent MIC: 200 µg/mL
[3]
  Independent MIC: 200 µg/mL
[4]
  Independent MIC: (100-200) μg/mL
[5]
  Independent MIC: (50-100) μg/mL

## N#Cc1c[nH]cc1-c1cccc2c1OC(F)(F)O2 [Fludioxonil, fludioxonil]
[8]
  MIC: 2 µg/mL
[16]
  MIC: 3 to 3.12 µg/mL
[10]
  MIC: 0.25 to 1 µg/mL
[3]
  MIC: 0.125 to 0.25 µg/mL
[4]
  MIC: 0.5 to 0.78 µg/mL
[17]; Botrytis cinerea, B17, 72 h
  MIC: 0.5 µg/mL
[1]
  MIC: 50 µg/mL (≈ 201 µM)
[18]; 72 h
  MIC: 2 µg/mL
[19]
  MIC: 50 to 80 µg/mL
[6]
  MIC: 0.16 to 0.31 µg/mL (≈ 0.645 to 1.25 µM)
[7]
  MIC: 200 µg/mL
[14]; 72 h
  MIC: 0.012 to 0.048 µg/mL
[15]; 72 h
  MIC: 0.195 to 0.39 µg/mL

## O=C(NCCc1ncc(C(F)(F)F)cc1Cl)c1ccccc1C(F)(F)F [Fluopyram, fluopyram]
[9]
  MIC: 200 µg/mL
[10]
  MIC: 3.12 to 6.25 µg/mL
[2]; [20]
  MIC: 0.78 to 1.56 µg/mL
[3]
  MIC: 0.78 to 3.12 µg/mL
[4]
  MIC: 1.56 to 4 µg/mL
[19]; [21]
  MIC: 200 µg/mL
[5]
  MIC: 200 µg/mL
[14]; [20]
  MIC: 0.1 to 0.4 µg/mL

## CC(C)Oc1cccc(NC(=O)c2ccccc2C(F)(F)F)c1 [Flutolanil, flutolanil]
[4]
  MIC: 400 µg/mL

## Cn1cc(C(=O)Nc2ccccc2-c2cc(F)c(F)c(F)c2)c(C(F)F)n1 [Fluxapyroxad, fluxapyroxad]
[2]; [20]
  Independent MIC: (0.39-0.4) μg/mL
[4]
  Independent MIC: 6.25 µg/mL
[6]
  Independent MIC: 3.13 µg/mL

## CC(C)NC(=O)N1CC(=O)N(c2cc(Cl)cc(Cl)c2)C1=O [Iprodione, ipordione]
[12]
  MIC: 3.12 to 6.25 µg/mL
[16]
  MIC: 12.5 to 50 µg/mL
[10]
  MIC: 12.5 to 50 µg/mL
[2]; [20]
  MIC: 50 to 100 µg/mL
[3]
  MIC: 4 to 10 µg/mL
[4]
  MIC: 15 to 25 µg/mL
[17]; [22]
  MIC: 16 to 20 µg/mL
[18]; [20]
  MIC: 25 to 30 µg/mL
[19]
  MIC: 3.12 to 12.5 µg/mL
[5]
  MIC: 1.56 to 6.25 µg/mL
[6]
  MIC: 12.5 µg/mL (≈ 37.9 µM)

## C[C@H]1O[C@H](O[C@H]2[C@H](O)[C@@H](O)[C@@H](O)[C@H](O)[C@@H]2O)[C@@H](N)C[C@@H]1NC(=N)C(=O)O [Kasugamycin]
[12]
  Independent MIC: (100-200) μg/mL
[3]
  Independent MIC: 100 µg/mL
[4]
  Independent MIC: 200 µg/mL
[7]
  Independent MIC: 200 µg/mL

## CC#Cc1cc(C)nc(Nc2ccccc2)n1 [Mepanipyrim, mepanipyrim]
[9]
  MIC: 0.75 µg/mL
[10]
  MIC: 0.05 to 0.1 µg/mL
[2]; [20]
  MIC: 25 µg/mL
[3]
  MIC: 0.098 to 0.19 µg/mL
[4]
  MIC: 50 to 100 µg/mL
[19]; [21]
  MIC: 50 µg/mL
[14]; [20]
  MIC: 0.025 to 0.048 µg/mL

## COCC(=O)N(c1c(C)cccc1C)C(C)C(=O)OC (centres unmarked) [Metalaxyl, metalaxyl]
[9]
  MIC: 400 µg/mL
[10]
  MIC: 400 µg/mL
[2]; [20]
  MIC: 400 µg/mL
[3]
  MIC: 128 to 200 µg/mL
[17]; [22]
  MIC: 50 to 64 µg/mL
[19]; [21]
  MIC: 400 µg/mL

## CC(C)CC(C)c1sccc1NC(=O)c1cn(C)nc1C(F)(F)F (centres unmarked) [Penthiopyrad, penthiopyrad]
[9]
  MIC: 100 µg/mL
[2]; 72 h
  MIC: 0.78 to 1.56 µg/mL
[4]
  MIC: 15 to 25 µg/mL
[6]
  MIC: 1.56 µg/mL (≈ 4.34 µM)
[15]; [20]
  MIC: 50 to 100 µg/mL

## CO/C=C(/C(=O)OC)c1ccccc1COc1cccc(C(F)(F)F)n1 [Picoxystrobin, picoxystrobin]
[10]
  Independent MIC: (25-50) μg/mL
[3]
  Independent MIC: 1.56 µg/mL
[4]
  Independent MIC: (100-200) μg/mL
[1]; [20]
  Independent MIC: (200-400) μg/mL
[5]
  Independent MIC: (50-200) μg/mL
[6]
  Independent MIC: (3.13-6.25) μg/mL

## C=CCOC1=NS(=O)(=O)c2ccccc21 [Probenazole, probenazole]
[8]
  MIC: 200 µg/mL
[12]
  MIC: 200 µg/mL
[3]
  MIC: 50 to 100 µg/mL
[4]
  MIC: 100 µg/mL
[5]
  MIC: 200 µg/mL
[6]
  MIC: 100 µg/mL (≈ 448 µM)
[7]
  MIC: 200 µg/mL

## CCCOC(=O)NCCCN(C)C [Propamocarb, propamocarb]
[12]
  MIC: 100 to 200 µg/mL
[3]
  MIC: 200 µg/mL
[4]
  MIC: 100 to 400 µg/mL
[5]
  MIC: 200 to 400 µg/mL

## Fc1ccc(Oc2ccnc3cc(Cl)cc(Cl)c23)cc1 [Quinoxyfen, quinoxyfen]
[4]
  MIC: 50 to 100 µg/mL
[19]; [21]
  MIC: 100 to 200 µg/mL

## O=[N+]([O-])c1c(Cl)c(Cl)c(Cl)c(Cl)c1Cl [Quintozene, quintozene]
[4]
  Independent MIC: 50 µg/mL
[15]; [20]
  Independent MIC: (25-50) μg/mL

## C=CC1(C)OC(=O)N(c2cc(Cl)cc(Cl)c2)C1=O (centres unmarked) [Vinclozolin, vinclozolin]
[8]
  MIC: 6.25 to 16 µg/mL
[10]
  MIC: 100 to 200 µg/mL
[2]; [20]
  MIC: 50 to 100 µg/mL
[3]
  MIC: 4 to 5 µg/mL
[4]
  MIC: 100 to 400 µg/mL
[19]; [21]
  MIC: 100 µg/mL
[5]
  MIC: 100 to 200 µg/mL

## CCC(C)(NC(=O)c1cc(Cl)c(C)c(Cl)c1)C(=O)CCl (centres unmarked) [Zoxamide, zoxamide]
[4]
  MIC: 0.39 to 1.6 µg/mL
